# Laboratory results as given in patent US11007169B2, “Cis-gnetin H and trans-gnetin H as therapeutic agents” (MIDDLE TENNESSEE STATE UNIVERSITY, priority 2014, dated 2021).
# Several values for one entry are separate records, joined by “and”; a condition that tells them apart may be missing. Equal entries are not always repeated.
# Legend:
# [1] = tested on: p65 (RelA) nuclear translocation in THP-1 cells; assay: Indirect immunofluorescence for NF-κB nuclear translocation; assay type: cell-based, human; details: pretreated 1 h, LPS 30 min; Bay 11-7082 10 μM
# Protocol: (§1) THP-1 cells were maintained in RPMI 1640 medium supplemented with 10% complement-inactivated FBS and 1% penicillin/streptomycin (complete culture medium) at 37° C. with 5% CO2 supplemented. Cell concentrations were adjusted to desired concentrations for each experiment by centrifugation at 500×g for 5 min and resuspended in complete culture medium with 100 nM of PMA. Cell concentration was adjusted to 5×10^5 cells/ml for all assays and 2.5×10^5 cells/ml were used for NF-κB nuclear translocation assay. Cells were seeded onto 96-, 24-, or 12-well plates and incubated for 48 to 72 h to allow for differentiation. Cells were washed with serum-free RPMI 1640 medium before each experiment to remove the undifferentiated cells.
# Differentiated THP-1 cells were pretreated with 50 μM of cis-gnetin H, trans-gnetin H, or 10 μM of Bay 11-7082 for 1 h and stimulated with 1 μg/ml of LPS for 30 min. Bay 11-7082 is a compound that inhibits IKK α/β and IκB α phosphorylation and was used as a positive control (Juliana et al., 2010, J. Biol. Chem., 285:9792-802). Treated cells were fixed, permeabilized, blocked, and stained with NF-κB, p65 primary antibody, Dylight 488 conjugated secondary antibody, and Hoechst 33342 dye, sequentially. The Hoechst and DyLight fluorophores detect changes in nuclear morphology (blue fluorescence) and NF-κB distribution (green fluorescence) respectively. Nuclear Translocation Bioapplication software on the Arrayscan VTI reader was used for image acquisition and analysis. For each well, at least 400 cells were automatically acquired and analyzed. The translocation index was calculated by measuring the average intensity difference of NF-icB between the identified cytoplasmic region and nuclear region.
# [2] = tested on: IL-8 in LPS-stimulated THP-1 cells; assay: Cytokine response by ELISA, IL-8; assay type: cell-based, human; details: Homo sapiens, THP-1; 1 μM, 20 ng/ml LPS 4 h
# Protocol: as §1
# (§2) Differentiated THP-1 cells were pretreated with various concentrations of cis-gnetin H, trans-gnetin H, or 1 μM of dexamethasone for 1 h and stimulated with 20 ng/ml of LPS for 4 h. Dexamethasone is a synthetic glucocorticoid that suppresses cytokine response and was used as a positive control (Abraham et al., 2006, J. Exp. Med., 203:1883-9; Steer et al., J. Biol. Chem., 2000, 275(24):18432-40). Supernatants were collected for human cytokine ELISAs and the manufacturer's protocol was followed to assess the cytokine response. Cells remaining after the supernatant collection were tested for relative viability by Alamar Blue cytotoxicity assay as described earlier.
# [3] = tested on: TNF-α in LPS-stimulated THP-1 cells; assay: Cytokine response by ELISA, TNF-α; assay type: cell-based, human; details: Homo sapiens, THP-1; 1 μM, 20 ng/ml LPS 4 h
# Protocol: as §1, §2
# [4] = tested on: IL-1β in LPS-stimulated THP-1 cells; assay: Cytokine response by ELISA, IL-1β; assay type: cell-based, human; details: Homo sapiens, THP-1; 1 μM, 20 ng/ml LPS 4 h
# Protocol: as §1, §2
# [5] = tested on: A549 lung cancer cell line; details: literature values; read-out: IC50 against the A549 lung cancer cell line; cited from earlier work
smiles,measurement,setting,value
"Cc1ccc(S(=O)(=O)C=CC#N)cc1 [Bay 11-7082, 3-(4-methylphenylsulfonyl)-2-propenenitrile, reference compound]",p65 nuclear translocation,[1],inhibited the p65 nuclear translocation
"C[C@@H]1C[C@H]2[C@@H]3CCC4=CC(=O)C=C[C@]4(C)[C@@]3(F)[C@@H](O)C[C@]2(C)[C@@]1(O)C(=O)CO [Dexamethasone, dexamethasone, reference compound]",inhibition at 1 µM,[2],63%
same,inhibition at 1 µM,[3],58%
same,inhibition at 1 µM,[4],56%
"Oc1ccc(C=Cc2cc(O)cc(O)c2)cc1 [Resveratrol, 3,5,4′-trihydroxystilbene]",IC50,[5],8.9 µM and > 10 µM
